# Laboratory results: patent publication US6608179B1, “Antibodies, that bind to HIV-2 transmembrane glycoprotein homodimer (gp 80)” (Institut Pasteur, priority 1988, dated 2003)
# How the values were obtained:
# HIV-2 infected CEM cells = experiment: Effect of glucosidase inhibitor on production of viral proteins in HIV-2 infected cells; assay type: cell-based; conditions: castanospermine 1 mM, 16 hr [35S] methionine labeling, culture supernatants
# Protocol: To confirm that gp80 was produced during the processing of envelope precursor, HIV-2 infected cells were labeled with [^35S] methionine in the absence or presence of the glucosidase inhibitor, castanospermine (Saul et al., 1983). Culture supernatants were then assayed by immunoprecipitation using an HIV-2 positive patient serum which recognizes several viral proteins.
# HIV-2 infected cells [1] = conditions: in the presence of monensin; previous study (Rey et al., 1989); cited from earlier work
# [2] = target: T1, binding of mAb 1H8 to gp80 (Human immunodeficiency virus type 2 subtype A, UniProt P04577); experiment: Peptide blocking of antibody signals in Western blot of HIV-2 virus pellet; conditions: 1 μg/ml of peptide p39′
# T1 construct: cleaved by the cellular protease to give the extracellular glycoprotein gp125 and the transmembrane glycoprotein dimer gp80; endogenous in cells; host or cells: virus pellet from culture medium of HIV-2 infected CEM cells
# T1 sequence (P04577 512-858 limits assumed): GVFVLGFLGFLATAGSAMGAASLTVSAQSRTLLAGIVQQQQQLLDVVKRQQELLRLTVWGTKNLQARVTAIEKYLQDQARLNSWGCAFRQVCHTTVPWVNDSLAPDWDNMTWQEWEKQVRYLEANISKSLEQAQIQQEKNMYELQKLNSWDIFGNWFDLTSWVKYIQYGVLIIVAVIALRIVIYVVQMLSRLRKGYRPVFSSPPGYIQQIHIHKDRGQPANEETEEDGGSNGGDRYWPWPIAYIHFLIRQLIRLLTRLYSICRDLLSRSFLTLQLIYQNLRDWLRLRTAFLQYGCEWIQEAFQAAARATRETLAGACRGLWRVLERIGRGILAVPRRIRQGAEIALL
# Protocol: Extracts from the HIV-2 virus pellets were analyzed by Western blot assay using mAb 1H8 (section mAb) or anti-gp300 polyclonal antibodies (section S). Incubation with each antibody was carried out in the absence (lanes −) or presence (lanes +) of 10 μg of peptide p39′. The results of the autoradiography are shown.
# To show the specificity of mAb 1H8 reactivity with gp80, a Western blot assay using extracts from HIV-2 virus pellet was carried out. After the transfer of proteins, nitrocellulose sheets were incubated with mAb 1H8 or anti-gp300 polyclonal antibodies in the absence or presence of 1 μg/ml of peptide p39′ (FIG. 5). […] In addition, a signal for gp36 was observed, but only after a prolonged exposure of the autoradiogram. […] These observations confirm that the reactivity of mAb 1H8 should be with the 26 amino acid residue corresponding to the amino acids 579 to 604 in the transmembrane glycoprotein of HIV-2. Consequently, a sequence corresponding to that of peptide p39′ should be present in gp80. The reactivity of anti-gp300 antibodies was not modified by peptide p39′. Therefore, these antibodies should interact with other epitopes than that corresponding to peptide 39′. […]
# HIV-2 infected cells [3] = experiment: Incorporation of labeled sugars into HIV-2 glycoproteins in infected cells; assay type: cell-based; conditions: [3H] glucosamine, fucose, mannose; data not shown
# From the text: Extracts from HIV-2 infected cells metabolically labeled with [^3H] glucosamine and [^3H] fucose were immunoprecipitated using mAb 1H8 and anti-gp300 polyclonal antibodies. In accord with the previous results (FIGS. 3-6), anti-gp300 antibodies immunoprecipitated sugar labeled gp300, gp140, gp125, and gp80, whereas mAb 1H8 immunoprecipitated gp300, gp140, and gp80. All these proteins incorporated [^3H] glucosamine, whereas incorporation of [^3H] fucose mainly occurred in gp125 and gp80 (FIG. 7a). In these experiments, the labeling of gp36 with [^3H] glucosamine was observed faintly after a prolonged exposure of the autoradiogram (data not shown; similar to FIG. 1, Rey et al., 1989). The glycoprotein gp80 also can incorporate [^3H] mannose as is the case for gp300, gp140, and gp125 (data not shown).
# For metabolic labeling of proteins, infected cells were incubated for 16 hours at 37° C. in MEM culture without L-methionine and serum, but supplemented with 200 μCi/ml [^35S] methionine. For metabolic labeling of glycoproteins, infected cells were incubated for 16 hours at 37° C. in MEM culture medium lacking serum and glucose but supplemented with 200 μCi/ml ^3H-Fucose or 200 μCi/ml ^3H-glucosamine.
compound,measurement,setting,value
O[C@H]1[C@H](O)[C@@H](O)CN2CC[C@H](O)[C@H]12 [castanospermine],production of gp80 and gp125,HIV-2 infected CEM cells,markedly reduced
same,production of the major core protein (p26),HIV-2 infected CEM cells,not significantly affected
CC[C@@]1([C@@H]2O[C@@H]([C@H]3O[C@@](O)(CO)[C@H](C)C[C@@H]3C)C[C@@H]2C)CC[C@H]([C@]2(C)CC[C@]3(C[C@H](O)[C@@H](C)[C@@H]([C@@H](C)[C@@H](OC)[C@H](C)C(=O)O)O3)O2)O1 [monensin],135-kDa protein (gp135) in HIV-2 infected cells,HIV-2 infected cells [1],accumulated
VTAIEKYLQDQARLNSWGCAFRQVCH [peptide p39′],effect of peptide on Western blot signals obtained with mAb 1H8,[2],completely abolished
same,effect of peptide on reactivity of anti-gp300 antibodies,[2],not modified
tunicamycin,incorporation of labeled sugars in gp80 and other glycoproteins,HIV-2 infected cells [3],completely blocked
